Reference: patent US20250255994A1, “DIMERIC IMMUNOCONJUGATES FOR USE IN TREATING CANCERS AND METHODS OF USE” (Medicovestor, Inc., priority 2023, published 2025)
Entries after “also recorded” stand apart in the source; their conditions may differ. Starred links: 1 amine or outer side, 2 acyl side, 3 side chain; linkers in the order of their positions; H or OH if unused. Non-standard residues stand in square brackets, D forms with d. Residues, ends and D or L forms follow the SMILES beside them. *: point of attachment. Exatecan = CC[C@@]1(O)C(=O)OCc2c1cc1n(c2=O)Cc2c-1nc1cc(F)c(C)c3c1c2[C@@H](N*)CC3; Hexanoyl(6-maleimido) = O=C1C=CC(=O)N1CCCCCC(=O)*; NHCH2OCH2CO = O=C(COCN[*:1])[*:2]

Tests used:
[1] = system: SK-OV-3 cells; assay: SK-OV-3 cytotoxicity assay (luminescence), Example 9; type: cell-based, human; details: SK-OV-3 cells at 2000 cells/well; five additional days
Experimental: The SK-OV-3 cells are then treated with various concentrations of (1) the SP17-AB2 antibody, (2) the SP17-AB2-DXD immunoconjugate, (3) the SP17-AB2-Ozogamicin immunoconjugate, (4) both the SP17-AB2-DXD immunoconjugate and the SP17-AB2-Ozogamicin, (5) the dSP17-AB2-DXD/Ozogamicin immunoconjugate, (6) hdSP17-AB2, (7) hIgG4, or (8) deruxtecan. […] IC50s and maximum cytotoxicity are then determined.
The IC50 of (4) the combination of SP17-AB2-DXD and SP17-AB2-Ozogamicin is determined based on the concentration of SP17-AB2-DXD and SP17-AB2-Ozogamicin individually and not based on the combined concentration. For example, when SK-OV-3 cells are incubated at a concentration of SP17-AB2-DXD and SP17-AB2-Ozogamicin of 128 nanomolar each, then the IC50 is calculated based on the 128 nanomolar concentration (and not the 256 nanomolar combined concentration) so that 128 nanomolar of (4) SP17-AB2-DXD and SP17-AB2-Ozogamicin contains about the same concentration of deruxtecan, ozogamicin, and antigen-binding sites as 128 nanomolar of (5) the dSP17-AB2-DXD/Ozogamicin immunotherapeutic.

[2] = system: SK-OV-3 cells; assay: SK-OV-3 cytotoxicity assay (luminescence), Example 4; details: 5 or 6 additional days; for Max Cytotoxicity: FIG. 9 axis: percent cytotoxicity
Experimental: SK-OV-3 cells were seeded at 1000, 2000, or 3000 cells per well and incubated overnight in advance of a cytotoxicity assay. […] The SK-OV-3 cells were treated with various concentrations of the SP17-AB2 antibody, the SP17-AB2-DXD immunoconjugate, a control human IgG4 antibody (hIgG4), or deruxtecan alone (DXD). The cells were incubated for 5 or 6 additional days, and cytotoxicity was then measured using a luminescence assay and En Vision™ plate reader (PerkinElmer, Massachusetts, United States).

[3] = system: ID8 cells; assay: ID8 cytotoxicity assay, Example 4; type: cell-based, mouse; details: 3 additional days, FIG. 10 axis: percent cytotoxicity
Experimental: […] The cells were then treated with various concentrations of either the SP17-AB2 antibody, the SP17-AB2-DXD immunoconjugate, hIgG4, or deruxtecan alone. The cells were incubated for 3 additional days, and then cytotoxicity was measured.

[4] = target: T1, recombinant 6His-Sp17 protein (human, UniProt Q15506 1-151); assay: surface plasmon resonance, 6His-Sp17 at 6.25-300 nanomolar as analyte
T1 construct: Analyte of the surface plasmon resonance experiment; not shown: 6His tag
T1 sequence (looked up): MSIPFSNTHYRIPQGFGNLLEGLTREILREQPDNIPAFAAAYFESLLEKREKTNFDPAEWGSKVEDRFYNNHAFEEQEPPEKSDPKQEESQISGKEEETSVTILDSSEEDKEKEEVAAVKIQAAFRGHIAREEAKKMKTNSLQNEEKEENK
Source text: (§1) The lines correspond, from highest to lowest, to fitted cycles for 300 nanomolar, 100 nanomolar, 50 nanomolar, 25 nanomolar, 12.5 nanomolar, and 6.25 nanomolar concentrations of 6His-Sp17.
(§2) The nucleotide sequences encoding the VH and VL regions of Example 1 were cloned into a […] heavy chain gene and a mouse kappa light chain gene, respectively, and expressed in CHO-S cells to produce a mouse-human chimeric antibody, which was named chAB2. Successful generation of the antibody was confirmed by SDS-PAGE and western blotting using anti-mouse heavy and light chain antibodies and recombinant Sp17 protein (FIGS. 2 & 3). The chAB2 antibody was reactive to mouse surface Sp17 protein expressed on the mouse ovarian cancer cell line ID8 (FIG. 4).

[5] = target: T1, recombinant 6His-Sp17 protein; assay: surface plasmon resonance (Biacore T200), 6His-Sp17 at 6.25-300 nanomolar as analyte
Source text: as §1, §2

[6] = target: T2, mouse surface Sp17 protein expressed on the mouse ovarian cancer cell line ID8 (Mus musculus, UniProt Q62252); assay: Flow cytometry of ID8 cells labeled with chAB2 and anti-mouse FITC antibody; type: cell-based; details: relative to anti-mouse FITC antibody alone
T2 construct: mouse surface Sp17 protein expressed on the mouse ovarian cancer cell line ID8; endogenous in cells; host or cells: ID8 mouse ovarian cancer cells
T2 sequence (Q62252 1-149): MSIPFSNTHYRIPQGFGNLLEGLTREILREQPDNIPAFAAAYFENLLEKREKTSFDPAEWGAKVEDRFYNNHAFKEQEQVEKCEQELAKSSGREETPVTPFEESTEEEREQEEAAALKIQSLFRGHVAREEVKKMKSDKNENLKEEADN
Experimental: FIG. 4 consists of three panels. The left panel is a graph that depicts flow cytometry results for ID8 cells incubated with an anti-mouse fluorescein isothiocyanate (FITC) antibody, but without a primary antibody. The middle panel is a graph that depicts flow cytometry results for ID8 cells labeled with the anti-Sp17 antibody chAB2 and the anti-mouse FITC antibody.
as §2, with “3).” for “3). The chAB2 antibody was reactive to mouse surface Sp17 protein expressed on the mouse ovarian cancer cell line ID8 (FIG. 4).”

[7] = system: 33 normal human tissues; assay: Immunohistochemistry on a normal tissue microarray (specificity); type: binding
Experimental: The specificity of the chAB2 antibody for Sp17 was determined with immunohistochemistry on a normal tissue microarray, which consisted of 33 normal tissues obtained from 2-3 human donors per tissue. The normal tissues included brain, eye, adrenal gland, hypophyseal, thyroid, parathyroid, tonsil, thymus, spleen, heart, lung, larynx, esophagus, stomach, small intestine, colon, liver, pancreas, salivary gland, kidney, bone, skeletal, skin, peripheral nerve, mesothelial, breast, ovary, endometrium, cervix, testis, and prostate.

[8] = target: T3, recombinant 6His-Sp17 protein (Homo sapiens, UniProt Q15506); assay: Surface plasmon resonance (Biacore T200) of chAB2 binding to Sp17; details: SPR
T3 construct: 6His
T3 sequence (Q15506 1-151): T1 sequence (looked up)
Source text: as §1
as §2, with “3).” for “3). The chAB2 antibody was reactive to mouse surface Sp17 protein expressed on the mouse ovarian cancer cell line ID8 (FIG. 4).”

[9] = SK-OV-3 cells at 1000 cells/well
[10] = SK-OV-3 cells at 2000 cells/well
[11] = SK-OV-3 cells at 3000 cells/well

In the case of `CC[C@@]1(O)C(=O)OCc2c1cc1n(c2=O)Cc2c-1nc1cc(F)c(C)c3c1c2[C@@H](NC(=O)COCNC(=O)CNC(=O)[C@H](Cc1ccccc1)NC(=O)CNC(=O)CNC(=O)CCCCCN1C(=O)C=CC1=O)CC3` [deruxtecan] ({Hexanoyl(6-maleimido)}-GGFG[NHCH2OCH2CO]-Exatecan), the “Max Cytotoxicity” value [1] is reported as 97, the IC50 [2, 9] is reported as 0.75 nM and the “Max Cytotoxicity” value [2, 9] is reported as 98. For the same molecule, the IC50 [2, 10] was 1.1 nM, the “Max Cytotoxicity” value [2, 10] was 97 and the IC50 [2, 11] was 1.2 nM. The “Max Cytotoxicity” value [2, 11] was 97, the “Max Cytotoxicity” value ([3]; ID8 cells at 250 cells/well) was 94 and the “Max Cytotoxicity” value ([3]; ID8 cells at 500 cells/well) was 93.

B1: mouse-human chimeric anti-Sp17 IgG2a/kappa monoclonal antibody chAB2 (antibody, V domains shown)
VH: QVQLQQSGAEVKKPGSSVKVSCKASGGTFSSYAISWVRQAPGQGLEWMGRIIPILGIANYAQKFQGRVTITADKSTSTAYMELSSLRSEDTAVYYCARPSEEVVAAYGAFDIWGQGTTVTVSS
VL: EIVLTQSPLSLPVRPGEPASISCRASQSLLRSDGFNYLDWYLQKPGQSPQLLVYLGSNRASGVPDRFSGSGSGTDFTLKISRVEAEDVGVYYCMQAVQTPYIFGQGTKLEIK
notes: also called chimeric antibody; anti-Sp17 antibody chAB2
B1 showed a koff [4] of 0.00013 s⁻¹, a kon [4] of 62600 M⁻¹ s⁻¹ and a Kd [5] of 2.07 nM.

B2: chAB2: mouse-human chimeric anti-Sp17 antibody: human VH/VL in mouse IgG2a heavy chain and mouse kappa light chain, expressed in CHO-S cells (antibody, V domains shown)
VH: B1 VH
VL: B1 VL
For B2, the “reactivity to surface Sp17 on ID8 cells (mean fluorescent intensity)” value [6] was “reactive to mouse surface Sp17 protein; also recorded: increased mean fluorescent intensity”, the “binding to / cross-reactivity with normal tissues (immunohistochemistry)” value ([7]; 33 normal tissues, 2-3 human donors per tissue) was “lack detectable cross-reactivity; also recorded: did not bind to normal tissues” and the “binding to testis (immunohistochemistry)” value ([7]; testis tissue) was “bound to testis”. For the same molecule, the “association rate constant (ka)” value ([8]; 6.25-300 nanomolar 6His-Sp17) was 62,600 per mole per second and the Kd ([8]; read-out: dissociation constant (KD)) was ~2 nM.
